Test results published in patent US20190297888A1, “FUNGICIDAL COMPOUNDS AND MIXTURES FOR FUNGAL CONTROL IN CEREALS” (Dow AgroSciences LLC, priority 2016, published 2019).

Tests used:
Type in all cases: in vivo
[1] = system: Zymoseptoria tritici (SEPTTR); assay: Field assessment of Compound I and fluxapyroxad on leaf blotch of wheat (AUDPC % control); conditions: AUDPC-based, 2 field trials
Description: (§1) Treatments consisting of the compound of Formula I and fungicide compound fluxapyroxad against fungal diseases of wheat were applied either using individually or as a two-way mixture of fluxapyroxad with the compound of Formula I. The compound of Formula I was applied with Agnique BP-420 (50% w/w at 0.3% v/v) at 50, 75 and 100 g ai/ha and Imtrex (Fluxapyroxad 62.5 g/L) was applied at 50, 75 and 100 g ai/ha. Commercial standards used in the studies were Adexar (epoxiconazole+fluxapyroxad—125 g/L), applied at 1.2 and 1.6 L pr/ha, and Elatus Era (benzovindiflupyr+prothioconazole—225 g/L), applied at 1.0 L pr/ha.
Fungicidal treatments containing the compound of Formula I and fluxapyroxad, either individually or as a two-way mixture, were assessed against leaf spot of wheat (SEPTTR) in two separate field trials. In the first trial, fungicidal treatments were applied at B32 (curative, 12% infection at application on L4) growth stage of winter wheat (TRZAW, TOBAK variety). The treatments were part of an experimental trial designed as a randomized complete block with four replications and a plot of approximately 2×2 m. Treatments were applied at water volume of 200 L/ha, using a backpack plot sprayer (BCYAIR, FLATFANA nozzle) and pressurized at 220 kPa.
In the second trial, fungicidal treatments were applied at B33-39 (curative, 50% infection at application on L5) growth stages of winter wheat (TRZAW, Consort variety). The treatments were part of an experimental trial designed as a randomized complete block with four replications and a plot of approximately 1.5×14 m. Treatments were applied at water volume of 200 L/ha, using a backpack plot sprayer (BKPCKAIR, Flat fan nozzle) and pressurized at 210 kPa.
(§2) Disease severity (percentage of visual diseased foliage on whole plot or leaves) in both field trials was recorded following EPPO PP1/26 guideline prescriptions. Area under the disease progress curve (AUDPC) was calculated for each plot in both trials using the sets of recorded severity data. Relative AUDPC (% control based on AUDPC) was calculated as percent of the nontreated control. Final results for the control of leaf spot of wheat by the compound of Formula I, fluxapyroxad and mixtures are reported as an average of the relative AUDPC calculated over both field trials. Statistical analysis was done according to ANOVA and Tukey's test (p=0.10).

[2] = system: Rhyncosporium secalis (RHYNSE); assay: Field assessment of Compound I and fluxapyroxad on leaf scald of barley (AUDPC % control); conditions: AUDPC-based, one field trial
Procedure: (§3) Commercial standards used in the studies were Proline 275 (275 g ai/L Prothioconazole), applied at 150 g ai/ha, and SiltraXpro (200 g ai/L prothioconazole+60 g ai/[…] bixafen), applied at 195 g ai/ha.
Fungicidal treatments containing the compound of Formula I and fluxapyroxad, either individually or as a two-way mixture, were assessed against scald of barley (RHYNSE) in one field trial. In the trial, fungicidal treatments were applied at B37-39 growth stages of winter barley (HORVW, Maris Otter variety) under natural infection of barley scald (protectant test, approximately 1% infection on leaf 4 at application). All treatments were part of an experimental trial designed as a randomized complete block with four replications.
(§4) Disease severity (percentage of visual diseased foliage on whole plot or leaves) in the field trial was recorded following EPPO PP1/26 guideline prescriptions. Area under the disease progress curve (AUDPC) was calculated for each plot in the trial using the sets of recorded severity data. Relative AUDPC (% control based on AUDPC) was calculated as percent of the nontreated control. […] Statistical analysis was done according to ANOVA and Tukey's test (p=0.10).

[3] = system: Puccinia triticina (PUCCRT); assay: Field assessment of Compound I and fluxapyroxad on brown rust of wheat (AUDPC % control); conditions: AUDPC-based, 5 field trials
Description: as §1
Fungicidal treatments containing the compound of Formula I and fluxapyroxad, either individually or as a two-way mixture, were assessed against brown rust of wheat (PUCCRT) in five separate field trials. In all trials, fungicidal treatments were applied at B34-51 growth stages of winter wheat (TRZAW; ATOUDUR, MIRADOUX, IRIDIUM or MV Vanek variety) under natural infection of brown rust (protectant tests, approximately 0-8% infection on leaf 3 or 4 at application). All treatments were part of an experimental trial designed as a randomized complete block with four replications and plot sizes of approximately 2×2 m to 2×7.5 m. Fungicidal treatments were applied at a water volume of 200 L/ha, using a backpack plot sprayer (BKPKAIR or BKPCENG) with a FLATFAN or AIRASST Nozzle pressurized at 210-250 kPa.
as §2, with “leaves) in five field trials” for “leaves) in both field trials”, “control of brown rust of wheat” for “control of leaf spot of wheat”, “calculated over all five field trials.” for “calculated over both field trials.”

[4] = system: Pyrenophora teres (PYRNTE); assay: Field assessment of Compound I and fluxapyroxad on net blotch of barley (AUDPC % control); conditions: AUDPC-based, 2 field trials
Procedure: as §3
Fungicidal treatments containing the compound of Formula I and fluxapyroxad, either individually or as a two-way mixture, were assessed against net blotch of barley (PYRNTE) in two separate field trials. In both trials, fungicidal treatments were applied at B31-37 growth stages of winter barley and sprong barley (HORVW, Lomeritt variety; HORVS, Scarlett variety) under natural infection of net blotch (protectant tests, 1% infection on leaf 4 and 10% infection on leaf 6 at application). All treatments were part of an experimental trial designed as a randomized complete block with four replications.
as §4, with “in both” for “in the”, “field trials” for “field trial”, “in both trials” for “in the trial”

Structure (SMILES) | SEPTTR % Control ([1]; rate 50 g ai/ha) [%] | SEPTTR % Control ([1]; rate 75 g ai/ha) [%] | SEPTTR % Control ([1]; rate 100 g ai/ha) [%] | RHYNSE % Control ([2]; rate 45 g ai/ha) [%] | RHYNSE % Control ([2]; rate 62.5 g ai/ha) [%] | RHYNSE % Control ([2]; rate 100 g ai/ha) [%] | PUCCRT % Control ([3]; rate 50 g ai/ha) [%] | PUCCRT % Control ([3]; rate 75 g ai/ha) [%] | PUCCRT % Control ([3]; rate 100 g ai/ha) [%] | PYRNTE % Control ([4]; rate 45 g ai/ha) [%] | PYRNTE % Control ([4]; rate 62.5 g ai/ha) [%] | PYRNTE % Control ([4]; rate 100 g ai/ha) [%] | RHYNSE % Control ([2]; rate 75 g ai/ha) [%] | RHYNSE % Control ([2]; rate 150 g ai/ha) [%] | PYRNTE % Control ([4]; rate 75 g ai/ha) [%] | PYRNTE % Control ([4]; rate 150 g ai/ha) [%]
Cn1cc(C(=O)Nc2ccccc2-c2cc(F)c(F)c(F)c2)c(C(F)F)n1 [Fluxapyroxad, 3-(difluoromethyl)-1-methyl-N-(3′,4′,5′-trifluorobiphenyl-2-yl)pyrazole-4-carboxamide] | 47.4 | 60.9 | 66.4 | 78.7 | 77.2 | 95.7 | 84.0 | 94.0 | 95.3 | 66.5 | 73.4 | 83.2 | – | – | – | –
N#Cc1ccc(Oc2ccc(C(F)(F)C(O)(Cn3ncnc3S)c3ccc(F)cc3F)nc2)cc1 (stereo not drawn) [Compound I, 4-((6-(2-(2,4-difluorophenyl)-1,1-difluoro-2-hydroxy-3-(5-mercapto-1H-1,2,4-triazol-1-yl)propyl)pyridin-3-yl)oxy)benzonitrile] | 43.9 | 50.7 | 56.6 | – | – | 61.3 | 86.0 | 90.0 | 93.4 | – | – | 23.5 | 67.2 | 81.1 | 8.66 | 40.8
